Converted amounts (≈) assume the structure as drawn. Where a SMILES comes first, the peptide text is derived from it. [ ]: non-standard residue; d: D form.
Tests used:
P. aeruginosa = experiment: microbe, parasite or virus in culture; format: cell-based, Pseudomonas aeruginosa
In short: (§1)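 Each strain is brought to 2×10^6 CFU in nutrient-sufficient Mueller-Hinton medium and dispensed into wells. Peptide solutions, stepwise diluted 2:1 in the same medium, are then added. The minimal concentration preventing growth gives the MIC.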

S. epidermidis = experiment: microbe, parasite or virus in culture; format: cell-based, Staphylococcus epidermidis
In short: as §1

MDREC 1229 [1] = experiment: MIC of antibiotic during combined treatment with antimicrobial peptide; format: cell-based, Escherichia coli
In short: (§2)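 Antibiotic MIC came from antibiotic dilutions added to bacteria (2×10^6 CFU/ml, MH medium) already combined with peptide serially diluted 2:1 from its own MIC. Swapping the roles of the two agents gave the peptide MIC.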

MDREC 1229 [2] = experiment: microbe, parasite or virus in culture; format: cell-based, Escherichia coli
In short: as §1

E. coli [3] = experiment: microbe, parasite or virus in culture; format: cell-based, Escherichia coli; settings: 16 h
In short: as §1

MDREC 1238 = format: cell-based, Escherichia coli
In short: as §1

MDRST 8007 = experiment: Minimal inhibitory concentration (MIC), single agent; format: cell-based, Salmonella typhimurium; settings: agent alone
In short: as §1

MRSA 3126 = format: cell-based, Staphylococcus aureus; settings: 3126
In short: as §1

MRSA 3114 = format: cell-based, Staphylococcus aureus; settings: 3114
In short: as §1

A. baumannii = experiment: MIC of antibiotic during combined treatment with antimicrobial peptide; format: cell-based, Acinetobacter baumannii; settings: for Antibiotic MIC, Erythromycin / Antibiotic MIC, Linezolid / Antibiotic MIC, Vancomycin: A. baumannii
In short: (§3)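 Antibiotic diluted in MH medium, dispensed per well with peptide; setup repeated with roles reversed; MIC read per combination.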

E. coli [4] = experiment: as above; format: cell-based, Escherichia coli; settings: for Antibiotic MIC, Erythromycin / Antibiotic MIC, Linezolid / Antibiotic MIC, Vancomycin: E. coli
In short: as §3

S. aureus = experiment: microbe, parasite or virus in culture; format: cell-based, Staphylococcus aureus
In short: as §1

MDRAB 12035 = experiment: MIC of antibiotic during combined treatment with antimicrobial peptide; format: cell-based, Acinetobacter baumannii
In short: as §2

MDRPA 2003 = format: cell-based, Pseudomonas aeruginosa
In short: as §1

MDRPA 2002 = format: cell-based, Pseudomonas aeruginosa
In short: as §1

B. subtilis = experiment: microbe, parasite or virus in culture; format: cell-based, Bacillus subtilis
In short: as §1

[5] = peptide treatment concentration 1 μg/ml
[6] = peptide treatment concentration 2 μg/ml
[7] = peptide treatment concentration 4 μg/ml
[8] = peptide treatment concentration 6 μg/ml
[9] = peptide treatment concentration 8 μg/ml
[10] = peptide treatment concentration 16 μg/ml
[11] = peptide treatment concentration 32 μg/ml
[12] = peptide treatment concentration 64 μg/ml
[13] = combined with peptide at 2 μg/ml
[14] = combined with peptide at 4 μg/ml
[15] = combined with peptide at 6 μg/ml
[16] = combined with peptide at 8 μg/ml
[17] = combined with peptide at 16 μg/ml
[18] = combined with peptide at 32 μg/ml
[19] = combined with peptide at 64 μg/ml

Compound: CC[C@H](C)[C@H](NC(=O)[C@H](CCCCN)NC(=O)[C@H](Cc1c[nH]c2ccccc12)NC(=O)[C@@H](N)CCCNC(=N)N)C(=O)N[C@@H](Cc1ccccc1)C(=O)N[C@@H](CCCCN)C(=O)N[C@@H](CCCCN)C(=O)N[C@H](C(=O)N[C@H](CC(C)C)C(=O)N[C@@H](CCCCN)C(=O)N[C@@H](CC(C)C)C(=O)N[C@@H](CC(C)C)C(=O)N[C@@H](Cc1c[nH]cn1)C(=O)N[C@@H](CCC(=O)O)C(=O)N[C@@H](C)C(=O)N[C@@H](CCCCN)C(=O)N[C@@H](CCCCN)C(=O)N[C@@H](Cc1c[nH]c2ccccc12)C(N)=O)[C@@H](C)CC [PapMA-24, RWK IFK KIl KLL HEA KKW-NH2] (H-RWKIFKKI[dL]KLLHEAKKW-NH2; N-terminus assumed)
- Minimal inhibitory concentration MIC (P. aeruginosa): 64 µg/mL (≈ 27.1 µM)
- Minimal inhibitory concentration MIC (S. epidermidis): >128 µg/mL
- Antibiotic MIC, Erythromycin (MDREC 1229 [1]; [5]): 128 µg/mL
- Antibiotic MIC, Linezolid (MDREC 1229 [1]; [5]): >128 µg/mL
- Antibiotic MIC, Vancomycin (MDREC 1229 [1]; [5]): >128 µg/mL
- Antibiotic MIC, Erythromycin (MDREC 1229 [1]; [6]): 64 µg/mL
- Antibiotic MIC, Linezolid (MDREC 1229 [1]; [6]): 128 µg/mL
- Antibiotic MIC, Vancomycin (MDREC 1229 [1]; [6]): >128 µg/mL
- Antibiotic MIC, Erythromycin (MDREC 1229 [1]; [7]): 32 µg/mL
- Antibiotic MIC, Linezolid (MDREC 1229 [1]; [7]): 64 µg/mL
- Antibiotic MIC, Vancomycin (MDREC 1229 [1]; [7]): >128 µg/mL
- Antibiotic MIC, Erythromycin (MDREC 1229 [1]; [8]): 8 µg/mL
- Antibiotic MIC, Linezolid (MDREC 1229 [1]; [8]): 64 µg/mL
- Antibiotic MIC, Vancomycin (MDREC 1229 [1]; [8]): 64 µg/mL
- Antibiotic MIC, Erythromycin (MDREC 1229 [1]; [9]): 2 µg/mL
- Antibiotic MIC, Linezolid (MDREC 1229 [1]; [9]): 32 µg/mL
- Antibiotic MIC, Vancomycin (MDREC 1229 [1]; [9]): 32 µg/mL
- Antibiotic MIC, Erythromycin (MDREC 1229 [1]; [10]): 1 µg/mL
- Antibiotic MIC, Linezolid (MDREC 1229 [1]; [10]): 8 µg/mL
- Antibiotic MIC, Vancomycin (MDREC 1229 [1]; [10]): 16 µg/mL
- Antibiotic MIC, Erythromycin (MDREC 1229 [1]; [11]): 0 µg/mL
- Antibiotic MIC, Linezolid (MDREC 1229 [1]; [11]): 0 µg/mL
- Antibiotic MIC, Vancomycin (MDREC 1229 [1]; [11]): 0 µg/mL
- Antibiotic MIC, Erythromycin (MDREC 1229 [1]; [12]): 0 µg/mL
- Antibiotic MIC, Linezolid (MDREC 1229 [1]; [12]): 0 µg/mL
- Antibiotic MIC, Vancomycin (MDREC 1229 [1]; [12]): 0 µg/mL
- Minimal inhibitory concentration MIC (MDREC 1229 [2]): 32 µg/mL (≈ 13.5 µM)
- Peptide MIC, peptide alone (MDREC 1229 [2]): 32 µg/mL
- Minimal inhibitory concentration MIC (E. coli [3]): 32 µg/mL (≈ 13.5 µM)
- Minimal inhibitory concentration MIC (MDREC 1238): 32 µg/mL (≈ 13.5 µM)
- Minimal inhibitory concentration MIC (MDRST 8007): 32 µg/mL (≈ 13.5 µM)
- Minimal inhibitory concentration MIC (MRSA 3126): >128 µg/mL
- Minimal inhibitory concentration MIC (MRSA 3114): >128 µg/mL
- Synergistic effect of antibacterial activity with existing antibiotics compared with PapMA-1 (A. baumannii; A. baumannii and MDRAB 12035): level similar to that of PapMA-1 peptide
- Antibiotic MIC, Erythromycin (A. baumannii; [13]): 32 µg/mL
- Antibiotic MIC, Linezolid (A. baumannii; [13]): >128 µg/mL
- Antibiotic MIC, Vancomycin (A. baumannii; [13]): 128 µg/mL
- Antibiotic MIC, Erythromycin (A. baumannii; [14]): 8 µg/mL
- Antibiotic MIC, Linezolid (A. baumannii; [14]): 64 µg/mL
- Antibiotic MIC, Vancomycin (A. baumannii; [14]): 64 µg/mL
- Antibiotic MIC, Erythromycin (A. baumannii; [15]): 2 µg/mL
- Antibiotic MIC, Linezolid (A. baumannii; [15]): 8 µg/mL
- Antibiotic MIC, Vancomycin (A. baumannii; [15]): 16 µg/mL
- Antibiotic MIC, Erythromycin (A. baumannii; [16]): 0.5 µg/mL
- Antibiotic MIC, Linezolid (A. baumannii; [16]): 4 µg/mL
- Antibiotic MIC, Vancomycin (A. baumannii; [16]): 8 µg/mL
- Antibiotic MIC, Erythromycin (A. baumannii; [17]): 0 µg/mL
- Antibiotic MIC, Linezolid (A. baumannii; [17]): 0 µg/mL
- Antibiotic MIC, Vancomycin (A. baumannii; [17]): 0 µg/mL
- Antibiotic MIC, Erythromycin (A. baumannii; [18]): 0 µg/mL
- Antibiotic MIC, Linezolid (A. baumannii; [18]): 0 µg/mL
- Antibiotic MIC, Vancomycin (A. baumannii; [18]): 0 µg/mL
- Antibiotic MIC, Erythromycin (A. baumannii; [19]): 0 µg/mL
- Antibiotic MIC, Linezolid (A. baumannii; [19]): 0 µg/mL
- Antibiotic MIC, Vancomycin (A. baumannii; [19]): 0 µg/mL
- Synergistic effect of antibacterial activity with existing antibiotics compared with PapMA-1 (E. coli [4]; E. coli and MDREC1229): level similar to that of the PapMA-1 peptide
- Antibiotic MIC, Erythromycin (E. coli [4]; erythromycin combined with peptide at 1 μg/ml): 64 µg/mL
- Antibiotic MIC, Erythromycin (E. coli [4]; erythromycin combined with peptide at 2 μg/ml): 32 µg/mL
- Antibiotic MIC, Erythromycin (E. coli [4]; erythromycin combined with peptide at 4 μg/ml): 16 µg/mL
- Antibiotic MIC, Erythromycin (E. coli [4]; erythromycin combined with peptide at 6 μg/ml): 4 µg/mL
- Antibiotic MIC, Erythromycin (E. coli [4]; erythromycin combined with peptide at 8 μg/ml): 2 µg/mL
- Antibiotic MIC, Erythromycin (E. coli [4]; erythromycin combined with peptide at 16 μg/ml): 0.5 µg/mL
- Antibiotic MIC, Erythromycin (E. coli [4]; erythromycin combined with peptide at 32 μg/ml): 0 µg/mL
- Antibiotic MIC, Erythromycin (E. coli [4]; erythromycin combined with peptide at 64 μg/ml): 0 µg/mL
- Antibiotic MIC, Linezolid (E. coli [4]; linezolid combined with peptide at 1 μg/ml): >128 µg/mL
- Antibiotic MIC, Linezolid (E. coli [4]; linezolid combined with peptide at 2 μg/ml): 128 µg/mL
- Antibiotic MIC, Linezolid (E. coli [4]; linezolid combined with peptide at 4 μg/ml): 64 µg/mL
- Antibiotic MIC, Linezolid (E. coli [4]; linezolid combined with peptide at 6 μg/ml): 32 µg/mL
- Antibiotic MIC, Linezolid (E. coli [4]; linezolid combined with peptide at 8 μg/ml): 32 µg/mL
- Antibiotic MIC, Linezolid (E. coli [4]; linezolid combined with peptide at 16 μg/ml): 8 µg/mL
- Antibiotic MIC, Linezolid (E. coli [4]; linezolid combined with peptide at 32 μg/ml): 0 µg/mL
- Antibiotic MIC, Linezolid (E. coli [4]; linezolid combined with peptide at 64 μg/ml): 0 µg/mL
- Antibiotic MIC, Vancomycin (E. coli [4]; vancomycin combined with peptide at 1 μg/ml): >128 µg/mL
- Antibiotic MIC, Vancomycin (E. coli [4]; vancomycin combined with peptide at 2 μg/ml): >128 µg/mL
- Antibiotic MIC, Vancomycin (E. coli [4]; vancomycin combined with peptide at 4 μg/ml): 128 µg/mL
- Antibiotic MIC, Vancomycin (E. coli [4]; vancomycin combined with peptide at 6 μg/ml): 32 µg/mL
- Antibiotic MIC, Vancomycin (E. coli [4]; vancomycin combined with peptide at 8 μg/ml): 16 µg/mL
- Antibiotic MIC, Vancomycin (E. coli [4]; vancomycin combined with peptide at 16 μg/ml): 8 µg/mL
- Antibiotic MIC, Vancomycin (E. coli [4]; vancomycin combined with peptide at 32 μg/ml): 0 µg/mL
- Antibiotic MIC, Vancomycin (E. coli [4]; vancomycin combined with peptide at 64 μg/ml): 0 µg/mL
- Minimal inhibitory concentration MIC (S. aureus): >128 µg/mL
- Erythromycin MIC during combined treatment with peptide (MDRAB 12035; [5]): 32 µg/mL
- Linezolid MIC during combined treatment with peptide (MDRAB 12035; [5]): >128 µg/mL
- Vancomycin MIC during combined treatment with peptide (MDRAB 12035; [5]): >128 µg/mL
- Erythromycin MIC during combined treatment with peptide (MDRAB 12035; [6]): 32 µg/mL
- Linezolid MIC during combined treatment with peptide (MDRAB 12035; [6]): >128 µg/mL
- Vancomycin MIC during combined treatment with peptide (MDRAB 12035; [6]): >128 µg/mL
- Erythromycin MIC during combined treatment with peptide (MDRAB 12035; [7]): 16 µg/mL
- Linezolid MIC during combined treatment with peptide (MDRAB 12035; [7]): 64 µg/mL
- Vancomycin MIC during combined treatment with peptide (MDRAB 12035; [7]): 64 µg/mL
- Erythromycin MIC during combined treatment with peptide (MDRAB 12035; [8]): 2 µg/mL
- Linezolid MIC during combined treatment with peptide (MDRAB 12035; [8]): 16 µg/mL
- Vancomycin MIC during combined treatment with peptide (MDRAB 12035; [8]): 32 µg/mL
- Erythromycin MIC during combined treatment with peptide (MDRAB 12035; [9]): 1 µg/mL
- Linezolid MIC during combined treatment with peptide (MDRAB 12035; [9]): 8 µg/mL
- Vancomycin MIC during combined treatment with peptide (MDRAB 12035; [9]): 16 µg/mL
- Erythromycin MIC during combined treatment with peptide (MDRAB 12035; [10]): 0.25 µg/mL
- Linezolid MIC during combined treatment with peptide (MDRAB 12035; [10]): 4 µg/mL
- Vancomycin MIC during combined treatment with peptide (MDRAB 12035; [10]): 8 µg/mL
- Erythromycin MIC during combined treatment with peptide (MDRAB 12035; [11]): 0 µg/mL
- Linezolid MIC during combined treatment with peptide (MDRAB 12035; [11]): 0 µg/mL
- Vancomycin MIC during combined treatment with peptide (MDRAB 12035; [11]): 0 µg/mL
- Erythromycin MIC during combined treatment with peptide (MDRAB 12035; [12]): 0 µg/mL
- Linezolid MIC during combined treatment with peptide (MDRAB 12035; [12]): 0 µg/mL
- Vancomycin MIC during combined treatment with peptide (MDRAB 12035; [12]): 0 µg/mL
- Minimal inhibitory concentration MIC (MDRPA 2003): 64 µg/mL (≈ 27.1 µM)
- Minimal inhibitory concentration MIC (MDRPA 2002): 64 µg/mL (≈ 27.1 µM)
- Minimal inhibitory concentration MIC (B. subtilis): >128 µg/mL

From patent US11214594B2, “Antimicrobial peptide having synergistic antibacterial effect with antibiotics on multidrug resistant bacteria, and use thereof” (priority 2016, dated 2022)
